# According to patent US20080262266A1, “Method for the Production of Xylyendiamine” (BASF SE, priority 2005, published 2008):
# Read-outs that look alike come from different tables or passages of the source.
# Columns and labels:
# [1] = solubility of isophthalonitrile (IPN) in organic solvents; format: physicochemical; details: 60° C.
# [2] = 70° C.; cited from earlier work
structure (smiles),measurement,setting,value
"N#Cc1cccc(C#N)c1 [IPN, 1,3-dicyanobenzene]",solubility of IPN in MXDA,[1]; MXDA,15 % by weight
same,solubility of IPN in THF,[1]; THF,~19 % by weight
same,solubility of IPN in methanol,[1]; methanol,18 % by weight
same,solubility of IPN in MXDA,[2],about 20 % by weight
